# Calls of active or inactive are those of the source. The rule behind the calls is not given here.
# Key:
# [1] = test system: Mycobacterium tuberculosis; type: functional; details: H37Rv, 168 h, time 7 day
# [2] = Aqueous solubility of compound at pH 7.4; type: physicochemical
# CHO = assay: Cytotoxicity against CHO cells assessed as reduction in cell viability by MTT assay; type: cell-based; details: Cricetulus griseus
# [3] = Metabolic stability in human liver microsomes assessed as parent compound remaining after 30 mins; type: ADME, Microsome; details: 0.5 h
# [4] = Metabolic stability in rat liver microsomes assessed as parent compound remaining after 30 mins; type: ADME, Microsome; details: 0.5 h
# [5] = Metabolic stability in mouse liver microsomes assessed as parent compound remaining after 30 mins; type: ADME, Microsome; details: 0.5 h
# [6] = Protein binding in human plasma assessed as unbound fraction at 5 uM incubated for 1 hr at 37 degreeC and measured after 4 hrs by ultracentrifugation based LC-MS/MS analysis; type: ADME, cell-free; details: 5 h
# [7] = Apparent half life in C57/BL6 mouse blood at 2 mg/kg, iv administered as bolus dose measured upto 24 hrs by LC-MS/MS analysis; type: ADME, organism-based
# [8] = Apparent half life in C57/BL6 mouse blood at 20 mg/kg, po measured upto 24 hrs by LC-MS/MS analysis; type: ADME, organism-based
# [9] = Total blood clearance in C57/BL6 mouse blood at 2 mg/kg, iv administered as bolus dose measured upto 24 hrs by LC-MS/MS analysis; type: ADME, organism-based
# [10] = Volume of distribution during elimination phase in C57/BL6 mouse blood at 2 mg/kg, iv administered as bolus dose measured upto 24 hrs by LC-MS/MS analysis; type: ADME, organism-based
# [11] = Cmax in C57/BL6 mouse blood at 2 mg/kg, iv administered as bolus dose measured upto 24 hrs by LC-MS/MS analysis; type: ADME, organism-based; parameters: route intravenous, dose 2 mg/kg, time <=24
# [12] = Cmax in C57/BL6 mouse blood at 20 mg/kg, po measured upto 24 hrs by LC-MS/MS analysis; type: ADME, organism-based; parameters: route oral, dose 20 mg/kg, time <=24
# [13] = Tmax in C57/BL6 mouse blood at 20 mg/kg, po measured upto 24 hrs by LC-MS/MS analysis; type: ADME, organism-based
# [14] = AUC (0 to infinity) in C57/BL6 mouse blood at 2 mg/kg, iv administered as bolus dose measured upto 24 hrs by LC-MS/MS analysis; type: ADME, organism-based; parameters: route intravenous, dose 2 mg/kg, time <=24
# [15] = AUC (0 to infinity) in C57/BL6 mouse blood at 20 mg/kg, po measured upto 24 hrs by LC-MS/MS analysis; type: ADME, organism-based; parameters: route oral, dose 20 mg/kg, time <=24
# [16] = Oral bioavailability in C57/BL6 mouse blood at 20 mg/kg measured upto 24 hrs by LC-MS/MS analysis; type: ADME, organism-based
# [17] = Kinetic solubility of compound at 200 uM at pH 7.4 measured after 20 hrs by HPLC-DAD analysis; type: physicochemical; details: buffer, pH 7.4, 20 h
# [18] = Intrinsic clearance in C57/BL6 mouse blood at 2 mg/kg, iv administered as bolus dose measured upto 24 hrs by LC-MS/MS analysis; type: ADME, organism-based; details: in vivo
# [19] = test system: Mycobacterium tuberculosis; assay: Antimycobacterial activity against wild-type Mycobacterium tuberculosis H37Rv assessed as inhibition of bacterial growth grown under middlebrook 7H9 medium incubated for 7 days by alamar blue broth microdilution method; type: functional; details: 168 h, time 7 day
# [20] = test system: Mycobacterium tuberculosis; assay: Bactericidal activity against Mycobacterium tuberculosis H37Rv assessed as reduction in CFU grown under middlebrook 7H9/OADC-Glycerol-Tween80 medium at 1 to 2 times MIC incubated for 7 days; type: functional; details: time 7 day
# [21] = test system: Mycobacterium tuberculosis; assay: Antimycobacterial activity against mmpL3 gene silenced Mycobacterium tuberculosis H37Rv assessed as inhibition of bacterial growth grown under middlebrook 7H9 medium incubated for 7 days by alamar blue broth microdilution method; type: functional, organism-based; details: time 7.0 day
# [22] = biological target: Voltage-gated inwardly rectifying potassium channel KCNH2 (Homo sapiens, UniProt Q12809); assay: Inhibition of human ERG
# Chain of Voltage-gated inwardly rectifying potassium channel KCNH2 (Q12809 whole entry): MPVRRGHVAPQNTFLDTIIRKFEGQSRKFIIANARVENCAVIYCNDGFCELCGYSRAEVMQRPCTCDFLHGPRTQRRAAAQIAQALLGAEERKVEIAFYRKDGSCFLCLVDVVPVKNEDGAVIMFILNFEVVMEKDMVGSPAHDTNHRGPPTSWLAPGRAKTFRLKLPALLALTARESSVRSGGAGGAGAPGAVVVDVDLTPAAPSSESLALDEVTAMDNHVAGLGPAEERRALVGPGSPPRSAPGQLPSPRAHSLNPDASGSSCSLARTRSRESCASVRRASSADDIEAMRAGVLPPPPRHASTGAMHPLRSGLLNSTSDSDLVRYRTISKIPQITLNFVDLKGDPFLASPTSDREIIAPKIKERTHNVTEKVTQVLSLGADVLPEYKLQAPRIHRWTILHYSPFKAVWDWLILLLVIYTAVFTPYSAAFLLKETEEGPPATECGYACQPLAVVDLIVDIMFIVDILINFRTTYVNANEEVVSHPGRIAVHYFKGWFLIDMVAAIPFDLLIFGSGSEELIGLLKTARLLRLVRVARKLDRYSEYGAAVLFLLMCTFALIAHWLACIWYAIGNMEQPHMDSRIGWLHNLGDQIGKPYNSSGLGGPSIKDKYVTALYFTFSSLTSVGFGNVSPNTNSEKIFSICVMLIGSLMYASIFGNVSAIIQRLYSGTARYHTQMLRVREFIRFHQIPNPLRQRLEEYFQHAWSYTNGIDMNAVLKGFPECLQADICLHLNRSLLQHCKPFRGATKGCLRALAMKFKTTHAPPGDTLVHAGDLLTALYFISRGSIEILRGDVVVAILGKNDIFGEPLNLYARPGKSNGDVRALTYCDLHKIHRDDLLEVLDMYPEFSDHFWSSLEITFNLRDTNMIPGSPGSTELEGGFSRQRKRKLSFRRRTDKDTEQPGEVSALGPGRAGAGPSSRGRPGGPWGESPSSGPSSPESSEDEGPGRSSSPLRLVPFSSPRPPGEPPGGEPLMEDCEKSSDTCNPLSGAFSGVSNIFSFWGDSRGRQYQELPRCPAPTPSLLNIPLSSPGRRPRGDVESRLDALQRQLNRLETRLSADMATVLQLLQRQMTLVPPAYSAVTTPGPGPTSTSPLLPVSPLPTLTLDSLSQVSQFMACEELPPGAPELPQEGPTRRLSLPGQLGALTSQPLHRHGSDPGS
# [23] = test system: Mycobacterium tuberculosis; type: functional; details: H37Rv, 168 h, time 7 day; remark: listed apart in the source
# [24] = test system: Mycobacterium tuberculosis; type: functional; details: H37Rv, 168 h, time 7 day; remark: listed apart in the source
# [25] = test system: Mycobacterium tuberculosis; type: functional; details: H37Rv, 168 h, time 7 day; remark: listed apart in the source
# [26] = test system: Mycobacterium tuberculosis; type: functional; details: H37Rv, 168 h, time 7 day; remark: listed apart in the source
# Vero = assay: Cytotoxicity against African green monkey Vero cells assessed as reduction in cell viability by MTT assay; type: cell-based; details: Chlorocebus sabaeus
# [27] = Lipophilicity, log D of the compound in n-octanol and phosphate buffer at pH 7.4 measured after 3 hrs by HPLC-DAD analysis; type: physicochemical
# [28] = Metabolic stability in human liver microsomes assessed as parent compound remaining at 1 uM in presence of NADPH by LC-MS/MS analysis; type: ADME, Microsome
# [29] = Metabolic stability in rat liver microsomes assessed as parent compound remaining at 1 uM in presence of NADPH by LC-MS/MS analysis; type: ADME, Microsome
# [30] = Metabolic stability in mouse liver microsomes assessed as parent compound remaining at 1 uM in presence of NADPH by LC-MS/MS analysis; type: ADME, Microsome
# [31] = C57/BL6, mouse, blood, read-out: t1/2(app) (converted)
smiles,measurement,setting,value
Cc1cc(Nc2ccc(F)cc2)n(-c2nc(C(F)(F)F)cc(=O)[nH]2)n1,MIC,[1],1.56 µM
same,solubility,[2]; buffer,15 µM
same,IC50,CHO,20 µM
same,Stabilty,[3],98%
same,Stabilty,[4],98%
same,Stabilty,[5],96%
same,Fu,[6],0.013
same,half-life,[7]; [31],5.6 h
same,half-life,[8]; [31],4.4 h
same,clearance,[9],80.9 mL/min/kg
same,Vd,"[10]; C57/BL6, mouse, blood, read-out: Vd",37.4 L/kg
same,Cmax,"[11]; C57/BL6, mouse, blood",2.4 µM
same,Cmax,"[12]; C57/BL6, mouse, blood",2.9 µM
same,Tmax,"[13]; C57/BL6, mouse, blood, read-out: Tmax",0.5 h
same,AUC(0-inf),"[14]; C57/BL6, mouse, blood",1.52 µM·h
same,AUC(0-inf),[15],5.22 µM·h
same,bioavailability,"[16]; C57/BL6, mouse, blood",33%
same,Kinetic_solubility,[17],15 µM
same,CL,[18],> 4000 mL/min/kg
same,MIC,[19],1.2 µM
same,Activity,[20],2 log10CFU
same,Activity,[21],Active
Cc1cc(C)n(-c2nc(C(F)(F)F)cc(=O)[nH]2)n1,MIC,[1],12 µM
same,solubility,[2]; buffer,200 µM
same,IC50,CHO,150 µM
same,Stabilty,[3],> 99%
same,Stabilty,[4],92%
same,Stabilty,[5],> 99%
same,Fu,[6],0.006
same,IC50,[22],> 30 µM
same,t1/2(app),"[7]; mouse, in vivo, 2 mg/kg, 24 h",3.1 h
same,t1/2(app),"[8]; mouse, in vivo, 20 mg/kg, 24 h",4 h
same,Vd,"[10]; mouse, in vivo, 2 mg/kg, 24 h",0.7 L/kg
same,Cmax,"[11]; mouse, in vivo, 24 h",29.1 µM
same,Cmax,"[12]; mouse, in vivo, 24 h",65.6 µM
same,Tmax,"[13]; mouse, in vivo, 20 mg/kg, 24 h",0.5 h
same,AUC,"[14]; mouse, in vivo, 24 h",2928 µM·min
same,F,"[16]; mouse, in vivo, 20 mg/kg, 24 h",41%
same,Kinetic_solubility,[17],200 µM
same,CL,[18],476 mL/min/kg
same,MIC,[19],15 µM
same,Activity,[20],2 log10CFU
same,Activity,[21],Active
Cc1ccc(Nc2cc(C)nn2-c2nc(C)cc(O)n2)cc1,MIC,[23],0.02 µM
same,MIC,[1],2 µM
same,MIC,[24],0.4 µM
same,MIC,[25],0.2 µM
same,MIC,[26],6 µM
same,IC50,Vero,1.2 µM
same,solubility,"[2]; aqueous, read-out: solubility",< 5 µM
same,logD at 3 h,[27],2.2
same,Stabilty,[28],73%
same,Stabilty,[29],76%
same,Stabilty,[30],78%
same,MIC,[19],4.8 µM
same,Activity,[21],Active
